# In patent US5854388A, “Angiotensin IV peptides and receptor” (Washington State University Research Foundation, priority 1994, dated 1998):
# Assay: Stability of angiotensin peptides in binding buffer (reverse phase HPLC)
# Type: physicochemical
# Details: 4 h at 37° C.
# Method: Binding studies were carried out in a buffer (below) containing an extensive cocktail of inhibitors that was designed to minimize metabolism of both the receptor and the test ligand, i.e., the buffer contained 5 mM EDTA, 0.2% BSA, […] Bestatin, 50 μM Plummer's inhibitor, and 100 μM PMSF.
smiles,measurement,value
"CC[C@H](C)[C@H](NC(=O)[C@H](Cc1ccc(O)cc1)NC(=O)[C@@H](N)C(C)C)C(=O)N[C@@H](Cc1cnc[nH]1)C(=O)N1CCC[C@H]1C(=O)N[C@@H](Cc1ccccc1)C(=O)O [AIV, Val1 Tyr2 Ile3 His4 Pro5 Phe6]",hydrolysis in binding buffer,less than 10%
